Assay results from the supplement of paper PMC10307832.

Assays:
Assay in all cases: relative viability (nuclei count vs DMSO), 5 days (fraction); higher = more cells survive
Olaparib + Navitoclax = compound: O=C(c1cc(Cc2n[nH]c(=O)c3ccccc23)ccc1F)N1CCN(C(=O)C2CC2)CC1 [Olaparib] + CC1(C)CCC(c2ccc(Cl)cc2)=C(CN2CCN(c3ccc(C(=O)NS(=O)(=O)c4ccc(N[C@H](CCN5CCOCC5)CSc5ccccc5)c(S(=O)(=O)C(F)(F)F)c4)cc3)CC2)C1 [Navitoclax] (partner 0.5 µM)
Outline: (§1)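 Each reported value is a median over duplicate plates. It expresses relative viability: treated-well nuclei count divided by vehicle-well nuclei count. Lung cancer cell lines in 1536-well plates were dosed by pin tool a day after seeding, alone with one drug or with a fixed anchor-drug dose plus five library-drug doses (not always all listed) in √10 steps, and nuclei were counted after 5 days.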

Carfilzomib + Olaparib = compound: CC(C)C[C@H](NC(=O)[C@H](CCc1ccccc1)NC(=O)CN1CCOCC1)C(=O)N[C@@H](Cc1ccccc1)C(=O)N[C@@H](CC(C)C)C(=O)[C@@]1(C)CO1 [Carfilzomib] + O=C(c1cc(Cc2n[nH]c(=O)c3ccccc23)ccc1F)N1CCN(C(=O)C2CC2)CC1 [Olaparib] (partner 8 µM)
Outline: as §1

Crizotinib + Pemetrexed = compound: C[C@@H](Oc1cc(-c2cnn(C3CCNCC3)c2)cnc1N)c1c(Cl)ccc(F)c1Cl [Crizotinib] + Nc1nc2[nH]cc(CCc3ccc(C(=O)N[C@@H](CCC(=O)O)C(=O)O)cc3)c2c(=O)[nH]1 [Pemetrexed] (partner 0.2 µM)
Outline: as §1

Olaparib + Foretinib = compound: O=C(c1cc(Cc2n[nH]c(=O)c3ccccc23)ccc1F)N1CCN(C(=O)C2CC2)CC1 [Olaparib] + COc1cc2c(Oc3ccc(NC(=O)C4(C(=O)Nc5ccc(F)cc5)CC4)cc3F)ccnc2cc1OCCCN1CCOCC1 [Foretinib] (partner 0.25 µM)
Outline: as §1

Row | Cell Line | relative viability (Olaparib + Navitoclax; first compound 0.08 µM) | relative viability (Olaparib + Navitoclax; first compound 0.253 µM) | relative viability (Olaparib + Navitoclax; first compound 2.53 µM) | relative viability (Olaparib + Navitoclax; first compound 8 µM) | relative viability (Carfilzomib + Olaparib; first compound 0.001 µM) | relative viability (Carfilzomib + Olaparib; first compound 0.003162 µM) | relative viability (Carfilzomib + Olaparib; first compound 0.01 µM) | relative viability (Carfilzomib + Olaparib; first compound 0.03162 µM) | relative viability (Carfilzomib + Olaparib; first compound 0.1 µM) | relative viability (Crizotinib + Pemetrexed; first compound 0.01 µM) | relative viability (Crizotinib + Pemetrexed; first compound 0.03162 µM) | relative viability (Crizotinib + Pemetrexed; first compound 0.1 µM) | relative viability (Crizotinib + Pemetrexed; first compound 1 µM) | relative viability (Olaparib + Foretinib; first compound 0.08 µM) | relative viability (Olaparib + Foretinib; first compound 0.253 µM) | relative viability (Olaparib + Foretinib; first compound 2.53 µM) | relative viability (Olaparib + Foretinib; first compound 8 µM) | relative viability (Crizotinib + Pemetrexed; first compound 0.3162 µM)
1 | HCC-366 | 1.08 | 0.985 | 0.827 | 0.492 | 0.364 | 0.39 | 0.362 | 0.311 | 0.0358 | 0.166 | 0.154 | 0.167 | 0.202 | 0.875 | 0.908 | 0.889 | 0.636 | 
2 | HCC-827 | 0.979 | 0.933 | 0.978 | 0.855 | 0.671 | 0.619 | 0.712 | 0.643 | 0.108 | 0.268 | 0.183 | 0.267 | 0.261 | 0.959 | 0.959 | 0.956 | 0.797 | 0.274
3 | HOP-62 | 1.22 | 0.929 | 1.06 | 0.823 | 0.399 | 0.397 | 0.443 |  | 0.0477 | 0.347 | 0.266 | 0.331 | 0.31 | 1.19 | 1.13 | 0.892 | 0.774 | 0.28
4 | IA-LM | 0.825 | 0.784 | 0.707 | 0.502 | 1.06 | 0.779 | 0.738 | 0.0714 | 0.0425 |  |  |  |  | 1.36 | 0.978 | 1.06 | 1.02 | 
5 | LC-2-ad | 0.529 | 0.431 | 0.365 | 0.316 | 0.673 | 0.715 | 0.667 | 0.637 | 0.237 | 0.266 | 0.259 | 0.276 | 0.302 | 1.05 | 0.816 | 1.01 | 0.889 | 
6 | LCLC-97TM1 | 0.528 | 0.259 | 0.346 | 0.405 | 0.367 | 0.527 | 0.318 | 0.0498 | 0.0493 | 0.201 | 0.16 | 0.166 | 0.192 | 0.912 | 0.827 | 0.958 | 0.812 | 0.17
7 | LCLC-103H |  |  |  |  | 0.733 | 0.781 | 0.793 | 0.428 | 0.354 | 0.493 | 0.47 | 0.447 | 0.444 | 1.13 | 0.652 | 0.732 | 0.673 | 0.461
8 | LK-2 | 0.887 | 0.696 | 0.876 | 0.951 | 0.646 | 0.661 | 0.86 | 0.149 | 0.149 | 0.276 | 0.188 | 0.246 | 0.236 | 1.4 | 1.21 | 1.15 | 1.12 | 0.166
9 | LOU-NH91 | 0.757 | 0.642 | 0.725 | 0.618 | 0.923 | 0.992 | 0.871 | 0.34 | 0.287 | 0.35 | 0.368 | 0.383 | 0.383 | 0.943 | 0.957 | 0.998 | 0.939 | 0.396
